# Biological target: T1, monoacylglycerol lipase (MAGL) (Rattus norvegicus, UniProt Q8R431)
# T1 construct: cerebella cytosol (CRBcyt) fractions, previously obtained from adult WISTAR rats; from tissue; host or cells: adult Wistar rat cerebella, cytosol fraction
# T1 sequence (Q8R431 1-303): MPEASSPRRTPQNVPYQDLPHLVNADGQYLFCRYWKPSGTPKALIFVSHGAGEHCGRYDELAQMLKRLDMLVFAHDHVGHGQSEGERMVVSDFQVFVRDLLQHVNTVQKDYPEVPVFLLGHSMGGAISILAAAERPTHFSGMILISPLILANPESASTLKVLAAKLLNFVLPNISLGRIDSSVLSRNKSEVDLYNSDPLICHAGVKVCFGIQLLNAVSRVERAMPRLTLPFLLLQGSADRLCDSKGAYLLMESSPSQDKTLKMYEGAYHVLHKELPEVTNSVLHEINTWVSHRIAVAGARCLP
# Assay: MAGL activity in rat cerebella cytosol (CRBcyt), hydrolysis of [3H] 2-OG
# Format: biochemical, WISTAR rats
# Details: 12.5 uM compound, remaining MAGL activity
# Procedure: FAAH inhibition was determined as described above. Inhibition of monoacylglycerol lipase (MAGL) and carboxylesterase (CE) was performed according to the protocols described below. The controls for both in vitro and in vivo were the reaction mix minus the test compounds. Therefore, a low value in Table 2 below for the test compounds indicates a strong inhibitor.
# MAGL activity measurement was based on rate of hydrolysis of [^3H] 2-OG (glycerol labeled) as substrate. Briefly, cerebella cytosol (CRBcyt) fractions, previously obtained from adult WISTAR rats, were diluted to appropriate assay protein concentrations in Tris-HCl buffer (10 mM, pH 7.2) containing 1 mM EDTA, and were added to assay tubes containing test compound. Blanks contained assay buffer instead of cytosol samples were used as control. […] The final assay contained 0.125% w v^−1 fatty acid-free BSA. After the incubation phase, reactions were stopped by adding 400 μL chloroform:methanol (1/1 v v^−1), vortex mixing the tubes two times and placing them on ice. Phases were separated by centrifugation and 200 μL aliquots of the methanol/buffer phase were taken and tritium content assayed by liquid scintillation spectroscopy with quench correction.
structure (smiles),measurement,value
"COc1cccc(-c2cn(C(=O)N3CCCc4ccccc43)cn2)c1 [Compound 39, (3,4-dihydroquinolin-1(2H)-yl)(4-(3-methoxyphenyl)-1H-imidazol-1-yl)methanone]",MAGL Rat CRBcyto 12.5 uM 8 min,87 % of control

# — patent publication US9353082B2, “Pharmaceutical compounds” (BIAL—PORTELA & CA, S.A., priority 2008, dated 2016)
